Experimental data taken from patent publication US20110293746A1, “Modulation of Gsk-3Beta and Method of Treating Proliferative Disorders” (Agency For Science, Technology and Research, priority 2004, published 2011).
“Also recorded” adds a separate entry of the source.

Key:
[1] = test system: p53 in HCT116 cells; assay: p53 accumulation in cytosol and mitochondria (subcellular fractionation, Western blot); type: cell-based, Human; details: after drug treatment
Procedure: (§1) Western blotting, immunoprecipitation and microarray analysis: Cells were scraped, collected and lysed as described previously (Yu, Q., et al. Cancer Res, 62: 5743-5748, 2002). Briefly, cells were lysed with cell lysis buffer (0.3% NP40, 1 mM EDTA, 50 mM Tris-HCl (pH 7.4), 2 mM EGTA, 1% Triton X-100, […], 25 mM NaF, 1 mM Na3VO4, 2 mM AEBSF, 5 μg/ml aprotinin, 1 μg/ml leupeptin) for 30 minutes on ice, and the lysates were clarified by centrifugation at 12,000×g for 15 minutes at 4° C. Protein concentration was quantified (Bio-Rad, Hercules, Calif.) and protein samples (50 μg) were separated by SDS/PAGE and transferred onto Immobilon™ membranes (Millipore, Bedford, Mass.). Antibodies against the following proteins were used: p53 (DO-1), p21, PARP, GSK-α/β, α-Tubulin, and β-actin (Santa Cruz Biotechnology), Puma (Ab-1, Oncogene), Bax (Sigma), phosphor-(Ser9/21)-GSK-3α/β and Caspase-9 (Cell Signaling Technologies), phosphor-(Tyr216/279)-GSK-3α/β (Upstate Biotechnologies), cytochrome c (BD PharMingen). To detect Bax conformational change, cells were lysed in 1% Chaps buffer and the soluble fraction was immunoprecipitated with anti-Bax monoclonal antibody (6A7, BD, PharMingen), followed by immunoblotting with anti-Bax polyclonal antibody. Microarray analysis was performed as described (Kho, P. S., et al. J Biol Chem, 279: 21183-21192, 2004).
(§2) Subcellular fractionation: Cells were lysed in mitochondria lysis buffer (210 mM Mannitol, 70 mM Sucrose, 10 mM Hepes (pH, 7.4), 1 mM EDTA, protease inhibitor cocktail) with a Dounce homogenizer and subjected to centrifugation at 1000×g to pellet the nuclei. Post-nuclear supernatant was centrifuged at 10,000×g to pellet the mitochondria-enriched heavy membrane fraction, and the resulting supernatant was further centrifuged to obtain cytosolic fraction. Total proteins (30 μg) from cytosolic or mitochondrial fractions were subjected to immunoblot analysis.

[2] = target: T1, GSK-3β (Homo sapiens, UniProt P49841); assay: Immunoblot analysis of GSK-3 phosphorylation status in HCT116 cells; type: cell-based
T1 construct: endogenous in cells; host or cells: HCT116
T1 sequence (P49841 whole entry): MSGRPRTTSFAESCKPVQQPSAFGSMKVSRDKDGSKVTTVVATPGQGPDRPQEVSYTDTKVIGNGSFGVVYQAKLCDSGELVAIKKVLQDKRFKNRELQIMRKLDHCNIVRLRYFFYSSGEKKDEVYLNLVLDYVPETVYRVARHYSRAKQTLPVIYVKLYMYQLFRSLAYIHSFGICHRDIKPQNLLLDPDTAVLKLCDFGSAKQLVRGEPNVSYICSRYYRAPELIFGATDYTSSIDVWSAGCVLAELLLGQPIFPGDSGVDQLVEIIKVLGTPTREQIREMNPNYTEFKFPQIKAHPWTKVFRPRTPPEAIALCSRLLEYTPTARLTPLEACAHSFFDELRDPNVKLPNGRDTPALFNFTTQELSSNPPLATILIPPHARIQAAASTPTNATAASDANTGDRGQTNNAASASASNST
Procedure: (§3) Protein concentration was quantified (Bio-Rad, Hercules, Calif.) and protein samples (50 μg) were separated by SDS/PAGE and transferred onto Immobilon™ membranes (Millipore, Bedford, Mass.). […] To detect Bax conformational change, cells were lysed in 1% Chaps buffer and the soluble fraction was immunoprecipitated with anti-Bax monoclonal antibody (6A7, BD, PharMingen), followed by immunoblotting with anti-Bax polyclonal antibody.
as §2

[3] = test system: HCT116 cells; assay: FACS analysis of DNA content (sub-G1 apoptotic fraction); type: cell-based, Human; details: for effect on ADR-treated cells (apoptosis): concentrations up to 20 μM, with ADR
Procedure: Cell culture and drug treatments: Human colon cancer cell line HCT116 and its derived isogenic p53^−/−, Puma^−/−, Bax^−/− and p53-inducible DLD cell lines were kindly provided by Dr. Bert Vogelstein (Johns Hopkins University, MD). RKO and RKO/E6 cells were from ATCC. Cells were cultured in DMEM containing 10% FBS. All culture reagents and media were from Invitrogen. 5-Fluorouracil, Adriamycin, etoposide and lithium chloride were purchased from Sigma. GSK-3β specific small molecule inhibitor LY2119301 was a gift from Eli Lilly (Indianapolis) and SB-216763, SB-415283 were obtained from BIOMOL.
FACS analysis of DNA content and caspase-3 activity: Cells were harvested and fixed in 70% ethanol. Fixed cells were stained with propidium iodide (50 μg/ml) after treatment with RNase (100 μg/ml). The stained cells were analyzed for DNA content by fluorescence-activated cell sorting (FACS) in a FACScalibur™ (Becton Dickinson Instrument, San Jose, Calif.). Cell cycle fractions were quantified using the CellQues™ software (Becton Dickinson). To measure caspase-3 activity, cells were fixed with Cytofix/Cytoperm™ solution (BD PharMingen) as instructed, and then stained with FITC-conjugated rabbit anti-active caspase-3 monoclonal antibody (BD PharMingen). Quantification of cells positive for the caspase-3 detection was performed by flow cytometry.

[4] = test system: p53 and p53 targets in HCT116 cells; assay: Immunoblot analyses of p53 and p53 targets; type: cell-based, Human; details: for cleavage of PARP: cells treated with genotoxic agents; for p53-mediated p21 induction / p53 accumulation / stability in response to DNA damage: with ADR, etoposide or 5-FU, HCT116 (LY2119301 also RKO)
Procedure: as §1

[5] = test system: GSK-3α and GSK-3β; details: in vitro, Coghlan et al. 2000; cited from earlier work
[6] = target: T2, GSK-3α (Homo sapiens, UniProt P49840); assay: Immunoblot analysis of GSK-3 phosphorylation status in HCT116 cells; type: cell-based; details: HCT116 whole lysate immunoblot
T2 construct: endogenous in cells; host or cells: HCT116
T2 sequence (P49840 whole entry): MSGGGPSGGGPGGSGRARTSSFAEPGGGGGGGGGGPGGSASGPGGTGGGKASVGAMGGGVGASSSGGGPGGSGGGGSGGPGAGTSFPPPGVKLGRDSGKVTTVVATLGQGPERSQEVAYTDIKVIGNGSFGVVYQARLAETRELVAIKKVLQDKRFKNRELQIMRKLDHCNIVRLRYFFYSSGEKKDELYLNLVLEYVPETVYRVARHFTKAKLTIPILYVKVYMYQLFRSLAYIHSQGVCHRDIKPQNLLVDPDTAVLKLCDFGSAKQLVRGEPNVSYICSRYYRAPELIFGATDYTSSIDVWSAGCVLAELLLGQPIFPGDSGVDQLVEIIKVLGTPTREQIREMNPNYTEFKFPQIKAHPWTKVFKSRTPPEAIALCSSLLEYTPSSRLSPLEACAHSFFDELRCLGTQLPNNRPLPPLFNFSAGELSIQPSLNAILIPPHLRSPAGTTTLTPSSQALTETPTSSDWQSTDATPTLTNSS
Procedure: as §3, §2

Row | Structure (SMILES) | time of p53 accumulation in the cytosol (not seen until) [1] | time of p53 accumulation in the mitochondria (as early as) [1] | levels and phosphorylation states of cytosolic and nuclear GSK-3α and GSK-3β ([2]; after etoposide treatment alone) | apoptosis by etoposide alone despite mitochondrial p53 accumulation ([3]; etoposide without GSK-3β inhibitor) | cleavage of PARP [4] | p53-mediated p21 induction [4] | p53 accumulation / stability in response to DNA damage [4] | effect on ADR-treated cells (apoptosis) [3] | inhibition of GSK-3α versus GSK-3β [5] | activating tyrosine phosphorylation on GSK-3α [6] | inhibitory serine 21 phosphorylation on GSK-3α [6] | inhibitory serine 9 phosphorylation on GSK-3β ([2]; HCT116 whole lysate immunoblot) | tyrosine phosphorylation of GSK-3β ([2]; nuclear and cytoplasmic fractions) | p53-mediated p21 induction ([4]; listed as SB-126763) | p53 accumulation / stability in response to DNA damage ([4]; listed as SB-126763)
1 | O=c1[nH]cc(F)c(=O)[nH]1 [5-FU, 5-fluorouracil] | 6 h | 2 h | – | – | – | – | – | – | – | – | – | – | – | – | –
2 | COc1cc([C@@H]2c3cc4c(cc3[C@@H](O[C@@H]3O[C@@H]5CO[C@@H](C)O[C@H]5[C@H](O)[C@H]3O)[C@H]3COC(=O)[C@H]23)OCO4)cc(OC)c1O [etoposide] | 6 h | 2 h | no changes | failed to induce apoptosis | – | – | – | – | – | – | – | – | – | – | –
3 | O=C1NC(=O)C(c2ccccc2[N+](=O)[O-])=C1Nc1ccc(O)c(Cl)c1 [SB-415286] | – | – | – | – | did not induce | no affect; also recorded: no effect | no affect; also recorded: no effect | no effect | – | – | – | – | – | – | –
4 | Cn1cc(C2=C(c3ccc(Cl)cc3Cl)C(=O)NC2=O)c2ccccc21 [SB-216763] | – | – | – | – | did not induce | no affect | no affect | no effect | equally effective | reduced | induced | slightly reduced | did not block | no effect | no effect
